The source of these data is patent publication US20260215418A1, “HYDROCARBON ALCOHOLS AND THEIR DERIVATIVES AS SYNERGISTS IN PESTICIDE ACTIVITY” (priority 2022, published 2026).

Where “and” joins values, the source holds several entries; their conditions need not be identical. Equal entries are not always repeated. Where two headings read alike, the source gives them in different places.

In data set [1] the test system is Blatta lateralis. The experiment in a line: Contact test on non-porous tile, Blatta lateralis. Type of data set: in vivo. Also on record: Mortality %: concentration or dose not given beside the values. The settings on record: for Mortality %: Example 31, 25° C, insects on treated tile; for Mortality %/time (h) (application): Table 37, Blatta lateralis, concentrations in mg/ml in label. Here is the method: 1 ml of Composition 24 was distributed on the tile. […] 1 ml of Composition 20c was distributed on a tile. […] 1 ml of Composition 20d was distributed on a tile.
1 ml of Composition 24 was distributed on the tile. […] 1 ml of Composition 28 was distributed on a tile. […] Each experiment (A-B) was conducted in duplicate.
1 ml of Composition 24 was distributed on the tile. […] 1 ml of Composition 21 was distributed on a tile.
1 ml of Composition 4b was distributed on the tile. […] 1 ml of Composition 31c was distributed on a tile. […] 1 ml of Composition 31d was distributed on a tile. […] 1 ml of Composition 31d was distributed on a tile.
1 ml of Composition 24 was distributed on the tile. […] 1 ml of Composition 35 was distributed on a tile. […] 1 ml of Composition 40b was distributed on a tile. […] 1 ml of Composition 42 was distributed on a tile.

Data set [2] relates to Blatta orientalis. The settings on record: for Mortality %: insects on treated tile; for Mortality %/time (h) (application): Table 37, concentrations in mg/ml in label; for Mortality %/time (h) (application) / synergizing effect on Cypermethrin: Blatta orientalis; for synergizing effect on Cypermethrin: synergist applied with Cypermethrin. Here is the method:
Method: Contact test on non-porous tile measuring 400 cm^2 at a temperature of 28° C. Test duration: up to 72 hours after exposure of the insect to the insecticidal active substance.
(§1) Three tests were performed in parallel, A, B, and C, as follows: • A) Comparative. 1 ml of Composition 2 was applied to the tile. After waiting for the complete evaporation of the solvent, 10 cockroaches were placed on top of the treated tile, starting the test. • B) According to the invention. 1 ml of Composition 8b was distributed on the tile. After waiting for the complete evaporation of the solvent, 1 ml of Composition 2 was added to the same tile. Subsequently, after waiting for the solvent to evaporate, 10 cockroaches were placed on top of the treated tile, starting the test. • C) According to the invention. 1 ml of Composition 8b was distributed on a tile. After waiting for the complete evaporation of the solvent, 10 cockroaches were placed for 30 minutes on top of the treated tile. At the end of the 30 minutes, the cockroaches were transferred to an untreated area.
Method: Contact test on non-porous tile measuring 400 cm^2 at a temperature of 28° C. Test duration: up to 120 hours after exposure of the insect to the insecticidal active substance.
as §1, with “4a” for “2”, “8d” for “8b”, “After” for “Subsequently, after”
Six tests were performed in parallel, A, B, C, D, E and F, as follows: • A) Comparative. 1 ml of Composition 9b was distributed on the tile. After waiting for the complete evaporation of the solvent, 1 ml of Composition 4a was added to the same tile. Subsequently, after waiting for the solvent to evaporate, 10 cockroaches were placed on top of the treated tile, starting the test. • B) Comparative. 1 ml of Composition 9b was distributed on a tile. After waiting for the complete evaporation of the solvent, 10 cockroaches were placed for 30 minutes on top of the treated tile. At the end of the 30 minutes, the cockroaches were transferred to an untreated area. […] 1 ml of Composition 10b was distributed on the tile. After waiting for the complete evaporation of the solvent, 1 ml of Composition 4a was added to the same tile. Subsequently, after waiting for the solvent to evaporate, 10 cockroaches were placed on top of the treated tile, starting the test. • D) Comparative. 1 ml of Composition 10b was distributed on a tile. After waiting for the complete evaporation of the solvent, 10 cockroaches were placed for 30 minutes on top of the treated tile. At the end of the 30 minutes, the cockroaches were transferred to an untreated area. […] 1 ml of Composition 8d was distributed on the tile. After waiting for the complete evaporation of the solvent, 1 ml of Composition 4a was added to the same tile. Subsequently, after waiting for the solvent to evaporate, 10 cockroaches were placed on top of the treated tile, starting the test. • F) According to the invention. 1 ml of Composition 8d was distributed on a tile. After waiting for the complete evaporation of the solvent, 10 cockroaches were placed for 30 minutes on top of the treated tile. At the end of the 30 minutes, the cockroaches were transferred to an untreated area.

Data set [3] relates to Musca domestica L. Briefly: Contact test on non-porous tile, Musca domestica. The note with it: for synergizing effect on Cypermethrin: Musca domestica L., synergist applied with Cypermethrin; for mortality at 680 µg/mL: Musca domestica, single substance alone, 0.68 mg/ml, 48 h, read-out: Mortality %/time (h). It counts as in vivo. Here is the method:
1 ml of Composition 1 was applied to the tile. […] 1 ml of Composition 8a was distributed on the tile. […] 1 ml of Composition 8a was distributed on a tile. […] At the end of the 30 minutes, the flies were transferred to an untreated area.
1 ml of Composition 3 was applied to the tile. […] 1 ml of Composition 8c was distributed on the tile. […] 1 ml of Composition 8c was distributed on a tile. […] At the end of the 30 minutes, the flies were transferred to an untreated area.
1 ml of Composition 9a was distributed on the tile. […] 1 ml of Composition 9a was distributed on a tile. […] At the end of the 30 minutes, the flies were transferred to an untreated area. […] 1 ml of Composition 10a was distributed on the tile. […] 1 ml of Composition 10a was distributed on a tile. […] At the end of the 30 minutes, the flies were transferred to an untreated area. […] 1 ml of Composition 8c was distributed on the tile. […] 1 ml of Composition 8c was distributed on a tile. […] At the end of the 30 minutes, the flies were transferred to an untreated area.
1 ml of Composition 5a, was distributed on the tile. […] 1 ml of Composition 6a was distributed on the tile. […] 1 ml of Composition 7a was distributed on the tile.
1 ml of Composition 3 was distributed on the tile. […] 1 ml of Composition 9a was distributed on the tile. […] 1 ml of Composition 11a was distributed on a tile. […] 1 ml of Composition 12a was distributed on a tile.
1 ml of Composition 3 was distributed on the tile. […] 1 ml of Composition 17a was distributed on a tile. […] 1 ml of Composition 18a was distributed on a tile. […] Each experiment (A-C) was conducted in duplicate.
1 ml of Composition 23a was distributed on the tile. […] 1 ml of Composition 20a was distributed on a tile. […] Each experiment (A-B) was conducted in duplicate.
1 ml of Composition 3 was distributed on the tile. […] 1 ml of Composition 25a was distributed on a tile. […] Each experiment (A-B) was conducted in duplicate.
1 ml of Composition 23a was distributed on the tile. […] 1 ml of Composition 27a was distributed on a tile. […] Each experiment (A-B) was conducted in duplicate.
1 ml of Composition 26a was distributed on a tile. […] 1 ml of Composition 26b was distributed on a tile. […] 1 ml of Composition 26c was distributed on a tile.
1 ml of Composition 22a was distributed on a tile. […] 1 ml of Composition 22b was distributed on a tile. […] 1 ml of Composition 22c was distributed on a tile.
1 ml of Composition 23a was distributed on the tile. […] 1 ml of Composition 44a was distributed on a tile.
1 ml of Composition 33 was distributed on a tile. […] 1 ml of Composition 33 was distributed on a tile. […] At the end of the 30 minutes, the flies were transferred to an untreated area.
1 ml of Composition 1 was distributed on the tile. […] 1 ml of Composition 34 was distributed on a tile. […] 1 ml of Composition 34 was distributed on a tile. […] At the end of the 30 minutes, the flies were transferred to an untreated area.
1 ml of Composition 3 was distributed on the tile. […] 1 ml of Composition 31a was distributed on a tile. […] 1 ml of Composition 31b was distributed on a tile. […] 1 ml of Composition 31b was distributed on a tile. […] At the end of the 30 minutes, the flies were transferred to an untreated area. […] 1 ml of Composition 38a was distributed on a tile. […] 1 ml of Composition 38a was distributed on a tile. […] At the end of the 30 minutes, the flies were transferred to an untreated area.
G) According to the invention. 1 ml of Composition 40a was distributed on a tile. […] Subsequently, after waiting for the solvent to evaporate, 10 flies were placed on top of the treated til

Consider `CC1(C)C(C=C(Cl)Cl)C1C(=O)OC(C#N)c1cccc(Oc2ccccc2)c1` (centres unmarked) [Composition 4b, Cypermethrin], for which the Mortality % in data set [1] (24 h) is 0%; in data set [1] (48 h) it was 40%. The “Mortality %/time (h) (application)” value in data set [1] (48 h) is 40/48 ^ %.
Take `CCCCC(O)CO` (centres unmarked) [Composition 31c, 1,2-hexandiol]: in data set [1] (48 h, listed as 1,2-hexandiol (0.05)), the “Mortality %/time (h) (application)” value is on record as 14/48 ^ %.
Turning to `CC1(C)C(C=C(Cl)Cl)C1C(=O)OC(C#N)c1cccc(Oc2ccccc2)c1` (centres unmarked) [Composition 4a, Cypermethrin], the Mortality % in data set [2] (Example 4, 28° C, 24 h) was 30%; in data set [2] (Example 4, 28° C, 48 h), 35%; in data set [2] (Example 4, 28° C, 120 h), 35%; in data set [2] (Example 10, 21° C, 24 h) it was 20%; in data set [2] (Example 10, 21° C, 48 h) it was 35%; in data set [2] (Example 11, 21° C, 48 h) it was 20%. The Mortality % in data set [2] (Example 11, 21° C, 72 h) was 25%; in data set [2] (Example 11, 21° C, 96 h) it was 33%; in data set [2] (Example 13, 21° C, 48 h) it was 60%; in data set [2] (Example 13, 21° C, 72 h) it was 62%; in data set [2] (Example 20, 21° C, 24 h) it was 5%; in data set [2] (Example 20, 21° C, 72 h), 25%. The Mortality % in data set [2] (Example 32, 25° C, 24 h) is listed as 10%; in data set [2] (Example 32, 25° C, 48 h), 35%; in data set [2] (Example 32, 25° C, 72 h), 45%. Besides, the “Mortality %/time (h) (application)” value in data set [2] (48 h, listed as Cypermethrin (0.20)) was 35/48 ^ % and 20/48 ^ %.
Turning to `CCCCC(O)CO` (centres unmarked) [Composition 31d, 1,2-hexandiol], in data set [1] (48 h, listed as 1,2-hexandiol (0.07)), the “Mortality %/time (h) (application)” value was 20/48 ^ %.
`CCCCC(CC)COC(=O)OCC(CC)CCCC` (centres unmarked) [bis(2-ethylhexyl)-carbonate]: in data set [3], the “synergizing effect on Cypermethrin” value is reported as “high synergizing effect” and the mortality at 680 µg/mL worked out at 19%. Also, the “synergizing effect on Cypermethrin” value in data set [2] was “synergizing effect”.
On to `CCCCCCCCCCC(CO)CCCCCCCC` (centres unmarked) [2-octyldodecanol], for which, in data set [3], the “synergizing effect on Cypermethrin” value was “synergistic effect, comparable to the activity shown by PBO” and the mortality at 680 µg/mL was 20%. Also, the “synergizing effect on Cypermethrin” value in data set [2] is reported as “superior to that shown with PBO”.
oleic alcohol [Composition 8b]: the “Mortality %/time (h) (application)” value in data set [2] (48 h) is 0/48 ^ %.
`CCCCC(O)CO` (centres unmarked) [1,2-hexandiol (0.84), 1,2-hexandiol]: the “Mortality %/time (h) (application)” value in data set [2] (48 h) is reported as 0/48 ^ %.
On to `CC1(C)C(C=C(Cl)Cl)C1C(=O)OC(C#N)c1cccc(Oc2ccccc2)c1` (centres unmarked) [Composition 46b, Cypermethrin], for which the Mortality % came out at 8% in data set [2] (Example 36, 25° C, 24 h) and 17% in data set [2] (Example 36, 25° C, 48 h). Besides, the “Mortality %/time (h) (application)” value in data set [2] (48 h, listed as Cypermethrin (0.10)) is 17/48 ^ %.
